The text below walks through data of patent US20100234377A1 (priority 2007, published 2010).

Data set [1] concerns the target T1, human Prostaglandin D Synthase (GST2) (Homo sapiens, UniProt O60760).
T1 construct: the open reading frame of human Prostaglandin D Synthase was amplified from cDNA; made in house; host or cells: E. coli TOP10F'
The data set is described as follows: Homogeneous biochemical assay of human Prostaglandin D Synthase (GST2) based on its glutathion-S-transferase activity (GSH conjugation to monochlorobimane, fluorescence). In outline:
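N-His-tagged human PGD synthase from E. coli, assayed via its GST activity: GSH conjugation to monochlorobimane in 50 mM MES/KOH pH 6.1, 0.7 mM GSH, 2 mM MgCl2. Compounds at final picomolar to triple-digit micromolar concentrations.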

A short description of data set [2]: Mouse microsomal metabolism assay. To be noted: liver microsomes; mouse hepatic microsomes, 37° C., phosphate buffer pH 7.4, NADPH regenerating system; read-out: Mouse t½. It is filed as in vitro ADME. The procedure: Selected GST2 Inhibitors from Formula I Assessed in Mouse Microsomal Metabolism Assay
Selected GST2 inhibitors of General Formula (I) were screened in a mouse hepatic microsome assay to determine microsomal metabolism.
Test Articles were prepared in 50% acetonitrile.
Mouse hepatic microsomes supplied by BD GenTest Inc or an equivalent reputable supplier.
Test Articles are added to incubation plates containing phosphate buffer pH 7.4 and microsomes at a suitable protein concentration. Incubation plates are placed on a shaking water bath at 37° C. for 5 minutes pre-incubation. An aliquot of the reaction mixture is taken and added to acetonitrile (3:1). This is designated time […]. NADPH regenerating system in phosphate buffer pH 7.4 is added to initiate reactions. Aliquots from the incubation wells are taken at a number of time points and added to acetonitrile. Control incubations contained no microsomes or compounds with known microsomal stabilities. Samples were subject to centrifugation to remove denatured protein and the supernatants were analysed by LCMS.
Half lives were calculated from the log vs time transformed data according to the following equation: […]
Where λ is the slope of the linear regression line under first order (Test Article concentration <Km) conditions.
Background: Liver microsomes are vesicles of endoplasmic reticulum, rich in cytochrome P450 enzymes.

Data set [3] concerns the target K+ATP channel (Rattus norvegicus, UniProt Q09429). The data set is described as follows: KATP channel receptor binding assay ([3H]glibenclamide). To be noted: Table 1; 10 μM compound concentration; [3H]glibenclamide 0.1 nM, rat cerebral cortex; read-out: K^+ATP Channel (% Inhibition of Control Specific Binding). The procedure: KATP Channel Mediated Binding Assay
The compounds of Comparative Examples I to XII and Compounds 59, 30, 22, 76 and 69 were tested for their effects in an in vitro receptor binding KATP channel assay.
The specific ligand binding to the receptor is defined as the difference between the total binding and the non-specific binding determined in the presence of an excess of unlabelled ligand. The results are expressed as a percent inhibition of control specific binding obtained in the presence of the test compounds.
In each experiment, the respective reference compound was tested concurrently with the test compounds in order to assess the assay suitability. It was tested at several concentrations (for IC50 value determination), and the data were compared with historical values.

[4] abbreviates: given beside the compound name in Examples 1 to 167, read-out: Potency Range (GST2 IC50).
The mark [5] stands for this setting: Table 1, read-out: GST2 IC50 Range.

As a reminder, the IC50 is the point on the concentration scale where inhibition reaches its midpoint. The term inhibition denotes the relative decrease from the control value, in per cent.

Like-named read-outs stand apart in the source and are kept apart here.

T1 sequence (O60760 whole entry): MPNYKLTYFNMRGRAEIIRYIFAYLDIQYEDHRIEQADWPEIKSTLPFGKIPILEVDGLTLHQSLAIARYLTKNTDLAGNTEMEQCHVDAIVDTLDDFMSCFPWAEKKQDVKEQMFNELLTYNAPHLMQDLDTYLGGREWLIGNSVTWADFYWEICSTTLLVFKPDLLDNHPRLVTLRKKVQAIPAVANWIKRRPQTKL
K+ATP channel, sequence (Q09429 whole entry): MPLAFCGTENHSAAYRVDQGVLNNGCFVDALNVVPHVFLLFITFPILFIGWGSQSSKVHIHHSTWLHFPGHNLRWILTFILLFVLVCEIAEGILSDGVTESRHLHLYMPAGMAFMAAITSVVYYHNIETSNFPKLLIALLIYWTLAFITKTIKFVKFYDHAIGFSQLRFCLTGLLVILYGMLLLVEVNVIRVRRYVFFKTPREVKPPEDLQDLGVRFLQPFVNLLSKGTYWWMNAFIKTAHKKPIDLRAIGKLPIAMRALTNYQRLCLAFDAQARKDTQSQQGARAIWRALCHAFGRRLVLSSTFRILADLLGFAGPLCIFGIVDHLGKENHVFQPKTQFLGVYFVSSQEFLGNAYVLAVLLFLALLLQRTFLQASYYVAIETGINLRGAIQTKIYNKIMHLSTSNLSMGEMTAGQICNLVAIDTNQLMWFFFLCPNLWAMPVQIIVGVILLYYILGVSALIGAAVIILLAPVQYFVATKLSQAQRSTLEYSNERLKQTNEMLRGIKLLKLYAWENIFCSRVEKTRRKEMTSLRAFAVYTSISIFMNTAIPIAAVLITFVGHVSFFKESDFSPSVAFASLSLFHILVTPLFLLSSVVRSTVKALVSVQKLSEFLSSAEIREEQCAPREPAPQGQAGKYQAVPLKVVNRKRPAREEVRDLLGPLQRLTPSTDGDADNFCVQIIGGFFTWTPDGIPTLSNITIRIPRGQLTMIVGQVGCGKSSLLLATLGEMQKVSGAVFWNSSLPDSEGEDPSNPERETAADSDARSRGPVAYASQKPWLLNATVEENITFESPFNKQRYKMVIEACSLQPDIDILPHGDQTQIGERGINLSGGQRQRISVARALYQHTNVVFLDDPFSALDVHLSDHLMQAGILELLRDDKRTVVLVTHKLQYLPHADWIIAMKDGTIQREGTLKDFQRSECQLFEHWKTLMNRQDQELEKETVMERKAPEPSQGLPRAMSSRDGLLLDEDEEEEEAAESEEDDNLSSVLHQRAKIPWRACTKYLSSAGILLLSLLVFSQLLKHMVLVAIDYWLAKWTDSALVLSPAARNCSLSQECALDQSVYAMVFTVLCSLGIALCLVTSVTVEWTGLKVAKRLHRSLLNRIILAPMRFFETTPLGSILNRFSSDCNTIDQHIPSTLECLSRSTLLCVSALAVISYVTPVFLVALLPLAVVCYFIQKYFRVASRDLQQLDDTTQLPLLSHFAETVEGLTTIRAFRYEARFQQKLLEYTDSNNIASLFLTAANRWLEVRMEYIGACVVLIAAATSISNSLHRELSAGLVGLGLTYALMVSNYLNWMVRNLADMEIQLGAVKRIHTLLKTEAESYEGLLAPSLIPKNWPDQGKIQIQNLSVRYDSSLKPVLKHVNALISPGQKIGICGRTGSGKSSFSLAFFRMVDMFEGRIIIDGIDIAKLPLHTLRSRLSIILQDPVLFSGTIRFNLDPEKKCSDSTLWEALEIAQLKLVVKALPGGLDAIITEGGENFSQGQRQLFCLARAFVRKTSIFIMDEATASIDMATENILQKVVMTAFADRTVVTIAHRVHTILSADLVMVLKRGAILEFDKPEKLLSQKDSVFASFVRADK
K+ATP channel, sequence (P70673 whole entry partner): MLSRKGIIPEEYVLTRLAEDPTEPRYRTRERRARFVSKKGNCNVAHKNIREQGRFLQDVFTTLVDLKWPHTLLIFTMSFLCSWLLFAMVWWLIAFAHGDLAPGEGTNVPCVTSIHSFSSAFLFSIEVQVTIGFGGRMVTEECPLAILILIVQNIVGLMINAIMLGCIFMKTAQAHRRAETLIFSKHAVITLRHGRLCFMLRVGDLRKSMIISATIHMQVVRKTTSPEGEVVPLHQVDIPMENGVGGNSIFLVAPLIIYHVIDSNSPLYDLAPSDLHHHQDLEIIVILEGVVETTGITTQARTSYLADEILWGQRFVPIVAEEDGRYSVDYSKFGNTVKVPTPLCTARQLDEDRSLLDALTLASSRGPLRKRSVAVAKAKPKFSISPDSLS

Take `CC(C)NC(=O)N1CCN(c2ccc(NC(=O)N3CCN(C(=O)c4cccc(F)c4)CC3)cc2F)CC1` [Compound 52, 4-(3-fluorobenzoyl)-N-{3-fluoro-4-[4-(isopropylcarbamoyl)piperazin-1-yl]phenyl}piperazine-1-carboxamide]: the IC50 in data set [1] (setting [4]) lay within 11 to 100 nM. For the same compound, the half-life in data set [2] is above 1 h.
With `CN1CCN(c2ccc(NC(=O)N3CCN(C(=O)c4cccc(F)c4)CC3)cc2F)CC1` [Compound 60, 4-(3-Fluoro-benzoyl)-piperazine-1-carboxylic acid [3-fluoro-4-(4-methyl-piperazin-1-yl)-phenyl]-amide], the IC50 in data set [1] (setting [4]) is 101 to 1000 nM. The half-life in data set [2] turned out to be 0.978 h.
For `O=C(Nc1ccc(Cl)nc1)N1CCN(C(=O)c2cccc(F)c2)CC1` [Compound 63, 4-(3-Fluoro-benzoyl)-piperazine-1-carboxylic acid (6-chloro-pyridin-3-yl)-amide] the same measures were 101 to 1000 nM and above 1 h.
For `O=C(Nc1ccc(C(=O)N2CCOCC2)cc1)N1CCN(C(=O)c2cccc(F)c2)CC1` [Compound 101, 4-(3-Fluoro-benzoyl)-piperazine-1-carboxylic acid [4-(morpholine-4-carbonyl)-phenyl]-amide] the same measures were 101 to 1000 nM and above 1 h.
For `NC(=O)c1ccc(NC(=O)N2CCN(C(=O)c3cccc(F)c3)CC2)cc1` [Compound 105, 4-(3-Fluoro-benzoyl)-piperazine-1-carboxylic acid (4-carbamoyl-phenyl)-amide], in that order: 101 to 1000 nM and above 1 h.
On to `O=C(Nc1cccc(NC(=O)N2CCN(C(=O)c3cccc(F)c3)CC2)c1)c1ccc[n+]([O-])c1` [Compound 109, 4-(3-Fluoro-benzoyl)-piperazine-1-carboxylic acid {3-[(1-oxy-pyridine-3-carbonyl)-amino]-phenyl}-amide], for which the IC50 in data set [1] (setting [4]) lay within 101 to 1000 nM. Besides, the half-life in data set [2] is above 1 h.
As to `O=C(Nc1ccc(NC(=O)N2CCN(C(=O)c3cccc(F)c3)CC2)cc1)c1ccncc1` [Compound 123, 4-(3-Fluoro-benzoyl)-piperazine-1-carboxylic acid {4-[(pyridine-4-carbonyl)-amino]-phenyl}-amide], the IC50 in data set [1] (setting [4]) is 101 to 1000 nM. In addition, the half-life in data set [2] was above 1 h.
For `CS(=O)(=O)Nc1ccc(NC(=O)N2CCN(C(=O)c3cccc(F)c3)CC2)cc1` [Compound 126, 4-(3-Fluoro-benzoyl)-piperazine-1-carboxylic acid (4-methanesulfonylamino-phenyl)-amide], in that order: 101 to 1000 nM and above 1 h.
For `O=C(Nc1ccc(N2CCOCC2)nc1)N1CCN(C(=O)c2cccc(F)c2)CC1` [Compound 154, 4-(3-Fluoro-benzoyl)-piperazine-1-carboxylic acid (6-morpholin-4-yl-pyridin-3-yl)-amide], the IC50 in data set [1] (setting [4]) is 11 to 100 nM. The half-life in data set [2] is above 1 h.
Take `O=C(Nc1ccc(F)cc1)N1CCN(C(=O)c2cccc(F)c2)CC1` [Compound 155, 4-(3-Fluoro-benzoyl)-piperazine-1-carboxylic acid (4-fluoro-phenyl)-amide]: in data set [1] (setting [4]), the IC50 was 101 to 1000 nM. Also, the half-life in data set [2] was determined as 0.99 h.
For `Cc1ccccc1C(=O)N1CCN(C(=O)Nc2ccc(F)cc2)CC1` [Compound 156, 4-(2-Methyl-benzoyl)-piperazine-1-carboxylic acid (4-fluoro-phenyl)-amide] the same measures were 101 to 1000 nM and 0.523 h.
`O=C(Nc1cc(C(F)(F)F)cc(C(F)(F)F)c1)N1CCN(C(=O)c2ccco2)CC1` [Compound I, 4-(Furan-2-carbonyl)-piperazine-1-carboxylic acid (3,5-bis-trifluoromethyl-phenyl)-amide, reference compound]: the IC50 in data set [1] (setting [5]) is 101 to 1000 nM. The inhibition at 10 µM in data set [3] is -1%.
Turning to `O=C(Nc1cc(Cl)cc(Cl)c1)N1CCN(C(=O)c2ccco2)CC1` [Compound II, 4-(Furan-2-carbonyl)-piperazine-1-carboxylic acid (3,5-dichloro-phenyl)-amide, reference compound], the IC50 in data set [1] (setting [5]) was in the range of 101 to 1000 nM. Further, the inhibition at 10 µM in data set [3] was -17%.
For `O=C(Nc1cc(C(F)(F)F)ccc1Cl)N1CCN(C(=O)c2ccco2)CC1` [Compound III, 4-(Furan-2-carbonyl)-piperazine-1-carboxylic acid (2-chloro-5-trifluoromethyl-phenyl)-amide, reference compound], in that order: 101 to 1000 nM and -8%.
For `O=C(c1ccco1)N1CCN(C(=S)Nc2cc(Cl)cc(Cl)c2)CC1` [Compound IV, 4-(Furan-2-carbonyl)-piperazine-1-carbothioic acid (3,5-dichloro-phenyl)-amide, reference compound] the same measures were 101 to 1000 nM and -7%.
For `O=C(c1ccccc1)N1CCN(C(=S)Nc2cc(C(F)(F)F)cc(C(F)(F)F)c2)CC1` [Compound IX, 4-Benzoyl-piperazine-1-carbothioic acid (3,5-bis-trifluoromethyl-phenyl)-amide, reference compound] the same measures were 101 to 1000 nM and 10%.
For `O=C(c1ccco1)N1CCN(C(=S)Nc2cc(C(F)(F)F)ccc2Cl)CC1` [Compound V, 4-(Furan-2-carbonyl)-piperazine-1-carbothioic acid (2-chloro-5-trifluoromethyl-phenyl)-amide, reference compound], the IC50 in data set [1] (setting [5]) was 101 to 1000 nM. Also, in data set [3], the inhibition at 10 µM is -20%.
On to `O=C(c1ccco1)N1CCN(C(=S)Nc2cc(C(F)(F)F)cc(C(F)(F)F)c2)CC1` [Compound VI, 4-(Furan-2-carbonyl)-piperazine-1-carbothioic acid (3,5-bis-trifluoromethyl-phenyl)-amide], for which the inhibition at 10 µM in data set [3] is 4%.
For the compound `O=C(Nc1cc(Cl)cc(Cl)c1)N1CCN(C(=O)c2ccccc2)CC1` [Compound VII, 4-Benzoyl-piperazine-1-carboxylic acid (3,5-dichloro-phenyl)-amide, reference compound], the IC50 in data set [1] (setting [5]) fell in the range of 11 to 100 nM. In addition, the inhibition at 10 µM in data set [3] was -10%.
For `O=C(Nc1cc(C(F)(F)F)ccc1Cl)N1CCN(C(=O)c2ccccc2)CC1` [Compound VIII, 4-Benzoyl-piperazine-1-carboxylic acid (2-chloro-5-trifluoromethyl-phenyl)-amide, reference compound], in that order: 101 to 1000 nM and -3%.
For `O=C(c1ccccc1)N1CCN(C(=S)Nc2cc(Cl)cc(Cl)c2)CC1` [Compound X, 4-Benzoyl-piperazine-1-carbothioic acid (3,5-dichloro-phenyl)-amide, reference compound] the same measures were 101 to 1000 nM and -10%.
For `O=C(c1ccccc1)N1CCN(C(=S)Nc2cc(C(F)(F)F)ccc2Cl)CC1` [Compound XI, 4-Benzoyl-piperazine-1-carbothioic acid (2-chloro-5-trifluoromethyl-phenyl)-amide, reference compound], in that order: 11 to 100 nM and -12%.
`O=C(c1ccccc1)N1CCN(C(=S)Nc2ccc(C(F)(F)F)cc2)CC1` [Compound XII, 4-Benzoyl-piperazine-1-carbothioic acid (4-trifluoromethyl-phenyl)-amide, reference compound]: the IC50 in data set [1] (setting [5]) lay in the range of 11 to 100 nM. In addition, the inhibition at 10 µM in data set [3] was -14%.
